Measurements from US6767738B1, “Method of isolating adult mammalian CNS-derived progenitor stem cells using density gradient centrifugation” (The Salk Institute for Biological Studies, priority 1999, dated 2004).

Key:
Type in all cases: cell-based, rat
clonal stem cells (AP14) [1] = assay: BrdU labeling of ACSC cultures during RA treatment
Method: (§1) Cell Culture. For proliferating conditions, clonal stem cells (AP14) were cultured in Dulbecco's Modified Eagles Medium/Ham's F12 (DMEM/F12, 1:1) containing N2 supplement (Gibco BRL, Gaithersburg, Md.) and 20 ng/ml rhFGF-2 (provided by A. Baird, Prizm Pharmaceuticals Inc., La Jolla, Calif.). Culture dishes (Becton Dickinsin Labware, Lincoln Park, N.J.) were coated with polyomithine and mouse laminin as previously described by Ray, et al., Proliferation, differentiation and long-term culture of primary hippocampal neurons, Proc Natl Acad Sci USA 90:3602-3606 (1993). For differentiation experiments, cells were plated into polyornithine/laminin coated glass chamber slides (Nunc, Naperville, Ill.) at a density of 2.5—103 per cm2. The cells were incubated for 24 hrs in normal N2 medium containing 20 ng/ml FGF-2, and then the medium was replaced by N2 medium containing 0.5% […] (FBS) and 0.01% DMSO (control solvent) or […] all-trans retinoic acid (Sigma, St. Louis, Mo.). For further differentiation, the medium was replaced by N2 medium containing 0.5% FBS and one of the following: sterile water (control solvent), mouse 2.55 NGF (50 ng/ml, Boehringer Mannheim, Indianapolis, Ind.), rhBDNF (20 ng/ml, Alomone Labs, Jerusalem, Israel), rhNT-3 (40 ng/ml, Genentech, South San Francisco, Calif.). The medium was replaced every two days. For inhibition of the tyrosine kinase activity of the Trk receptors, K-252a (100 nM, Calbiochem, San Diego, Calif.) was added to the medium.
BrdU Labeling and Visualization. Cells plated as described above were treated with BrdU ([…], Sigma) for 24 hrs before fixation. Then the cells were fixed with tris-buffered 4% paraformaldehyde for 15 min. incubated with tris-buffered 0.6% H2O2 for 30 min, and treated with 50% formamide/2×SSC for 2 hrs followed by a 30-min incubation in 2N HCl, and a neutralization in 0.1M borate (Na2B4O7) for 10 min. Cells were incubated with a-BrdU monoclonal antibody (1:400, Boehringer Mannheim) overnight at 4° C., and incubated with biotinylated horse anti-mouse secondary antibody (1:80, Jackson Immunoresearch, West Grove, Pa.) for 1 hr. Reactive cells were visualized with the avidin/biotin-peroxidase system (Vectastain Elite, Vector Laboratories, Burlingame, Calif.) and diaminobenzidine.
Upregulation of p21 was accompanied by a decrease in the number of dividing cells as evidenced by BrdU incorporation. Cultures were treated with RA for 2, 4, or 6 days and then pulsed with […] bromodeoxyuridine (BrdU) for 24 hrs on the last day of RA treatment. Cells were then fixed and processed for BrdU immunocytochemistry. In the presence of RA, there was a dramatic change in cell morphology, and a gradual decrease in the total number and proportion of BrdU-positive cells. Within 6 days of RA treatment, most of the phase-bright cells extended elaborate processes and only 29% of the cells were BrdU-positive, whereas in the serum-alone control treatment most of the cells continued to proliferate and retained rudimentary process morphology. In proliferative FGF-2-stimulated controls, more than 95% of the cells were labeled every 24 hrs.
Although proliferation decreased in response to RA, it is possible that the few remaining proliferating cells were contributing to the increase in neurons observed following RA treatment. To determine if RA induced a selective expansion of neuronal precursors, parallel cultures were treated with RA for 6 days followed by an additional 6 days in 0.5% serum alone. One set of cultures was fixed on days 2, 4, 6, 8, 10, and 12 and stained with 4,6-diamidino-2-phenylindole (DAPI) and the total number of nuclei was counted. Additional cultures were pulsed with BrdU for 72 hrs on days 0-3, 3-6, 6-9 or 9-12. The cultures were then fixed on day 12 and evaluated for the proportion of Map2ab-IR cells that had incorporated BrdU. […]

[2] = system: c-fos mRNA (Trk receptor tyrosine kinase signaling); assay: RT-PCR analysis of neurotrophin-dependent c-fos induction; conditions: pretreatment with RA for 6 days
Method: as §1
(§2) Reverse Transcription-PCR Analysis. Total RNA from stem cells was isolated using RNeasy Total RNA Kits (Qiagen, Chatsworth, Calif.) according to manufacturer's instructions. Fifty nanograms of total RNA was reverse transcribed using avian myeloblastosis virus reverse transcriptase (Promega, Madison, Wis.) with random hexamers ([…]) as primers in a […] reaction mixture. For PCR amplification, two sets of specific oligonucleotide pairs ([…]) were used: one directed to the transcript of interest, and one for a constitutively expressed transcript, either ribosomal protein L27 or L27a. Reactions were performed in a […] reaction mixture containing 10 mM Tris-Cl (pH 8.4), 50 mm KCl, 1.5 mM MgC12, […] each of the four dNTPs, 2 mCi of [a-32P]dCTP and 5 units of Taq polymerase (Promega) using a thermal cycler (Perkin-Elmer, Foster City, Calif.) with a regimen of 1 min at 94° C., 2 min at 60° C. (55° C. for trk receptors) and 2 min at 72° C. for 23 cycles Fifty microliters of each reaction was analyzed by electrophoresis on 8% polyacrylamide gels followed by autoradiography. […] Under these conditions, the L27 amplification product was directly proportional to the amount of input RNA, up to 50 ng total RNA. Oligonucleotide primers used are as follows: […]
RA treatment also results in neurotrophin-dependent induction of c-fos. Transient and rapid induction of immediate early genes such as c-fos is a well-characterized response to extracellular stimuli in neural cells. c-fos is induced after neurotrophin treatment in cultured […] hippocampal or cortical cells and the signaling cascade following c-fos induction is considered to be integral to subsequent steps in differentiation. To determine whether upregulation of mRNAs for trk receptors and p75NGFR observed in the stem cell cultures results in the acquisition of functional Trk-dependent stimulation of c-fos, mRNA was examined by RT-PCR analysis after stimulating RA-treated cells with neurotrophins. […]

clonal stem cells (AP14) [3] = assay: RT-PCR analysis of p21, NeuroD, trk and p75NGFR mRNA in stem cell cultures
Method: as §1, §2

## CC1=C(/C=C/C(C)=C/C=C/C(C)=C/C(=O)O)C(C)(C)CCC1 [RA, all-trans retinoic acid]
Clonal stem cells (AP14) [1]; after 6 days of RA treatment
  Map2ab-IR neurons that divided (BrdU): < 0.5%
Clonal stem cells (AP14) [1]; days 3-6 of RA treatment
  Map2ab-IR cells that divided (BrdU): Less than 5%
Clonal stem cells (AP14) [1]; first 24 hours upon application of RA
  neurons labeled with BrdU: 19 +/− 3%
Clonal stem cells (AP14) [1]; second day following RA treatment
  neurons labeled with BrdU: 3 +/− 1%
Clonal stem cells (AP14) [1]; three days immediately following start of RA treatment, 72 hr pulse
  Map2ab-IR cells that divided (BrdU): Less than one third
Clonal stem cells (AP14) [1]; within 6 days of RA treatment, 24 hr BrdU pulse
  BrdU-positive cells: 29%
[2]
  baseline expression of c-fos mRNA: increased
Clonal stem cells (AP14) [3]; RA treatment, peaked after roughly 5 days
  p21 mRNA: significant yet gradual increase
Clonal stem cells (AP14) [3]; following RA treatment
  trkA mRNA: increased gradually and reached a plateau after 5 days
  trkB mRNA: increased gradually and reached a plateau after 5 days
  trkC mRNA: increased gradually and reached a plateau after 5 days
Clonal stem cells (AP14) [3]; following RA treatment, 7-day time course
  p75NGFR mRNA: dramatically increased
Clonal stem cells (AP14) [3]; within 24 hrs of FGF-2 withdrawal and RA treatment, 6 days
  expression of NeuroD mRNA: increased and remained elevated

## FGF-2: basic fibroblast growth factor, human recombinant, prepared in E. coli
Clonal stem cells (AP14) [1]; proliferative FGF-2-stimulated controls
  cells labeled every 24 hrs (BrdU): more than 95%
